Assay results taken from the supplement of paper PMC10883282.

What was measured:
[1] = tested on: A204; test: relative viability vs DMSO control (72 h) (fraction); higher = more viable cells
Summary of the method: (§1)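 Serially diluted compound, 2.5 µl from source plates spanning 10 mM to 0.0002 mM, was added 24 h after sarcoma cell lines were seeded in 384-well plates at densities targeting 80–90% confluence. Plates then sat 72 h at 37 °C, 5% CO2, with 0.1% DMSO vehicle and a 5 µM positive control. Relative viability came from ATPLite as percent growth, averaged over up to triplicate wells, and was rescaled with 1 as full and 0 as none.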

[2] = tested on: HS729; test: as above
Summary of the method: as §1

[3] = tested on: KHOS-NP; test: as above
Summary of the method: as §1

[4] = tested on: SW684; test: as above
Summary of the method: as §1

[5] = tested on: SW872; test: as above
Summary of the method: as §1

[6] = tested on: A204; test: standardised AUC of viability dose-response curve (72 h) (fraction (0-1)); higher = less growth inhibition (more resistant)
Summary of the method: (§2)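 Viability of sarcoma cell lines was read with ATPLite after 72 h of triplicate treatment in 384-well plates with 2.5 µl of compound from a compound-plate series of 10 mM to 0.0002 mM. Viability was scaled 1 (full) to 0 (none) and fitted with a four-parameter log-logistic model for each drug and cell line. The reported standardised area under the dose-response curve in log-dose space comes from a modified drexplorer computeAUC, where 1 is no response and 0 is full response.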

[7] = tested on: G401; test: as above
Summary of the method: as §2

[8] = tested on: HS729; test: as above
Summary of the method: as §2

[9] = tested on: HT1080; test: as above
Summary of the method: as §2

[10] = tested on: KHOS-240S; test: as above
Summary of the method: as §2

[11] = tested on: KHOS-NP; test: as above
Summary of the method: as §2

[12] = tested on: MES-SA; test: as above
Summary of the method: as §2

[13] = tested on: RD-ES; test: as above
Summary of the method: as §2

[14] = tested on: RD; test: as above
Summary of the method: as §2

[15] = tested on: SK-ES-1; test: as above
Summary of the method: as §2

[16] = tested on: SK-LMS-1; test: as above
Summary of the method: as §2

[17] = tested on: SW1353; test: as above
Summary of the method: as §2

[18] = tested on: SW684; test: as above
Summary of the method: as §2

[19] = tested on: SW872; test: as above
Summary of the method: as §2

[20] = tested on: SW982; test: as above
Summary of the method: as §2

[21] = tested on: SYO-1; test: as above
Summary of the method: as §2

[22] = tested on: VA-ES-BJ; test: as above
Summary of the method: as §2

CNC(=O)c1nnc(NC(=O)C2CC2)cc1Nc1cccc(-c2ncn(C)n2)c1OC
relative viability
Conditions | [1] | [2] | [3] | [4] | [5]
0.00017 µM | 1.1 | 0.934 | 1.07 | 1.16 | 1.01
0.00051 µM | 1.09 | 0.925 | 1.08 | 1.15 | 1
0.00152 µM | 1.08 | 0.869 | 1.063 | 1.18 | 0.995
0.00457 µM | 1.06 | 0.885 | 1.06 | 1.15 | 1.026
0.01372 µM | 1.06 | 0.9 | 1.07 | 1.17 | 1.01
0.04115 µM | 1.06 | 0.931 | 1.076 | 1.17 | 1.02
0.1235 µM | 1.07 | 0.906 | 1.08 | 1.18 | 1.03
0.3704 µM | 1.09 | 0.8552 | 1.07 | 1.2 | 1.02
1.111 µM | 1.11 | 0.86 | 1.061 | 1.15 | 1.02
3.333 µM | 1.01 | 0.84 | 1.09 | 1.14 | 0.957
10 µM | 0.714 | 0.761 | 1.05 | 1.12 | 0.768

Conditions | standardised AUC
[6] | 0.978
[7] | 0.99
[8] | 0.956
[9] | 0.992
[10] | 0.976
[11] | 0.993
[12] | 0.984
[13] | 0.99
[14] | 0.983
[15] | 0.958
[16] | 0.988
[17] | 0.986
[18] | 0.991
[19] | 0.983
[20] | 0.983
[21] | 0.989
[22] | 0.986

COc1cc(CCc2cc(NC(=O)c3ccc(N4CC(C)NC(C)C4)cc3)n[nH]2)cc(OC)c1 (centres undefined) [AZD-4547]
relative viability
Conditions | [1] | [2] | [3] | [4] | [5]
0.00017 µM | 1.04 | 1.02 | 1.079 | 1.11 | 1.05
0.00051 µM | 1.06 | 0.918 | 1.1 | 1.1 | 1
0.00152 µM | 1.04 | 0.914 | 1.07 | 1.12 | 1
0.00457 µM | 1.02 | 0.901 | 1.08 | 1.14 | 0.991
0.01372 µM | 1.02 | 0.827 | 1.048 | 1.07 | 0.987
0.04115 µM | 0.841 | 0.83 | 1.03 | 1.07 | 0.976
0.1235 µM | 0.714 | 0.65 | 1.03 | 1.06 | 0.963
0.3704 µM | 0.625 | 0.627 | 1.01 | 1.06 | 0.954
1.111 µM | 0.556 | 0.57 | 1.02 | 1.08 | 0.926
3.333 µM | 0.463 | 0.473 | 1 | 1.08 | 0.725
10 µM | 0.274 | 0.265 | 0.927 | 0.999 | 0.465

Conditions | standardised AUC
[6] | 0.742
[7] | 0.729
[8] | 0.752
[9] | 0.965
[10] | 0.831
[11] | 0.947
[12] | 0.857
[13] | 0.903
[14] | 0.948
[15] | 0.869
[16] | 0.988
[17] | 0.873
[18] | 0.965
[19] | 0.934
[20] | 0.91
[21] | 0.698
[22] | 0.987
